Source: patent publication US20170252278A1, “INHIBITION OF MATURATION OF DENTAL BIOFILM AND CARIOGENIC PROPERTIES” (KONINKLIJKE PHILIPS N.V., priority 2014, published 2017)

Legend:
Format in all cases: cell-based
[1] = system: in vitro oral plaque biofilms; experiment: In vitro oral plaque biofilm formation in the Amsterdam Active Attachment Model, CFU determination; conditions: for effect on in vitro oral plaque biofilm formation: 10 μM, difference less than one log, not considered biologically relevant
Description: Stimulated saliva, used as inoculum, was collected on ice from ten donors. Saliva was donated 24 h after last brushing. The saliva was diluted 2-fold with 60% sterile glycerol, aliquoted and stored at −80° C. Before use, a pooled sample was prepared by mixing 200 μl of thawed saliva of each donor and vortexing for 30 seconds. In vitro oral plaque biofilms were inoculated 1:50 with pooled saliva.
In vitro oral plaque biofilms were grown in the Amsterdam Active Attachment Model (AAA-model, Exterkate et al. (2010)), assembled with glass coverslips (diameter 12 mm; Menzel, Braunschweig, Germany). The model was inoculated for 8 h with pooled saliva in buffered semi-defined McBain medium (2.5 g/l mucin (Sigma, St Louis, Mo.), 2.0 g/l Bacto peptone (Difco, Detroit, Mich.), 2.0 g/l Trypticase peptone (BBL, Cockeysville, Md.), 1.0 g/l yeast extract (BD Diagnostic Systems, Sparks, Md.), 0.35 g/l NaCl, 0.2 g/l KCl, 0.2 g/l CaCl2, 1 mg/l hemin (Sigma, St. Louis, Mo., USA), and 2 mg/l vitamin K1 (McBain et al. (2005)), with 50 mmol/1 PIPES at pH 7.0), with 0.2% sucrose.
In vitro oral plaque biofilms were grown in the AAA-model for 48-96 h in the presence of the compounds tested. The model was inoculated with saliva and incubated anaerobically at 37° C. for 8 hours to allow microbes to attach to the glass coverslips. After 8 hours of attachment, the inoculation medium was refreshed and in vitro oral plaque biofilms were grown for 16 hours. This refreshment routine was repeated daily until the day of harvesting.
In vitro oral plaque biofilms were harvested by transferring the glass coverslips into 2 ml phosphate buffered saline (PBS). The biofilms were dispersed using a Vibracell VCX130 sonicator with a maximum of 130 Watts and 20 kHz (Sonics & Materials, Newtown, USA). Bio films were sonicated on ice for 1 minute with a pulse rate of 50% and pulses of 1 second. Vibration amplitude was set to 40%.
To estimate the amount of in vitro oral plaque biofilm formation, total anaerobic colony forming units were determined. Briefly, serial dilutions of the dispersed bio films were made and plated on tryptic soy agar blood plates. Plates were subsequently incubated anaerobically for 96 h at 37° C. and colony forming units were determined by counting the number of colonies for each dilution.

[2] = system: in vitro oral plaque biofilms; experiment: Microbial composition of biofilms by 16S rDNA sequencing; conditions: for shift in composition (Streptococcus down, Veillonella and Actinobacillus up) versus control: 10 μM; for Actinobacillus, share of biofilm composition / Actinomyces, share of biofilm composition / Campylobacter, share of biofilm composition / Fusobacterium, share of biofilm composition / Granulicatella, share of biofilm composition / Haemophilus, share of biofilm composition / Megasphaera, share of biofilm composition / Neisseria, share of biofilm composition / Other taxa, share of biofilm composition / Porphyromonas, share of biofilm composition / Prevotella, share of biofilm composition / Rothia, share of biofilm composition / Solobacterium, share of biofilm composition / Streptococcus, share of biofilm composition / Unclass. Pasteurellaceae, share of biofilm composition / Veillonella, share of biofilm composition: 3-Oxo-N 100 μM, furanones 10 μM
Description: DNA was isolated using phenol bead-beating followed by Agowa isolation, following the manufacturers instructions (LGC Genomics, Mag mini kit). Briefly, cells were mechanically disrupted four times at 1200 rpm for two minutes in addition of Tris-saturated Phenol, pH8, 0.1 mm zirconium beads and Mag lysis buffer. The DNA-containing phase was mixed with binding buffer and magnetic beads. DNA concentration was estimated by determining the absorbance at 260 nm using the nanodrop (Isogen, ND-1000).
PCR was performed in a final volume of 25 μl containing 1 μl of each primer ([…]), 1 μl dNTP (10 mM), 2.5 μl 10× DreamTaq Buffer including MgCl2 (Thermo Scientific), 0.2 μl DreamTaq DNA Polymerase (5 u/μ1, Thermo Scientific) and 50 ng of DNA. Initial denaturation was performed at 94° C. for 4 min, followed by 35 cycles of denaturation at 94° C. for 30 s, 54° C. annealing for 1 min, 72° C. for 1 min primer extension and a final extension at 72° C. for 5 min. Product formation was confirmed by electrophoresis of 5 μl on a 1% (w/v) agarose gel (Sphearo Q, Leiden, The Netherlands) stained with ethidium bromide.
These samples were analyzed by 16S rDNA Illumina sequencing at TNO Zeist (Netherlands).
Table 3. Microbial composition of biofilms grown for 48 (Table 3A) or 96 h (Table 3B) in the presence of different QS inhibitors. Composition was determined by 16S rDNA sequencing. The composition of the original inoculum used for all biofilms was also determined. “Unclass.” means: unclassified.

[3] = system: in vitro oral plaque biofilms; experiment: Lactic acid production assay of in vitro oral plaque biofilms; conditions: for reduction of lactate production / lactic acid production after 96 h of growth: 10 μM; for total lactic acid production per biofilm (FIG. 2): 100 μM, biofilms grown 48 h, 3 h in BPW with 0.2% sucrose
Description: All compounds tested of Table 1 were obtained from Sigma Aldrich. All compounds of Table 2, except 3-oxo-N(2oxocyclohexyl)dodecanamide, were kindly provided by M. Meijler, University of the Negev, Israel. The compounds were dissolved in DMSO and stored at −20 C. The compounds were continuously present at the indicated concentrations during biofilm growth, but not during further phenotypic analysis, i.e. lactate production.
To estimate the cariogenic phenotype, lactic acid production of the in vitro oral plaque biofilms was determined prior to harvesting (Exerkate et al 2010). In short, the biofilms on coverslips were placed in a 24-well plate containing 1.5 ml of BPW with 0.2% sucrose. Lactic acid formation was allowed for 3 hr at 37° C. under anaerobic conditions. The total amount of lactic acid produced in this period was analyzed using a colorimetric assay described previously (van Loveren et al. (2000)) and expressed as mM lactic acid, and as μM lactic acid per 1×10^6 CFU.
Biofilms were grown for 48 h in buffered McBain medium supplemented with 0.2% sucrose in the presence of 100 μM of one of the compounds. Medium was refreshed twice every day. […]

Structure (SMILES): O=C1OCC(Br)=C1Br [3,4-Di-bromo, 3,4-Dibromo-2(5H)-furanone]
- effect on in vitro oral plaque biofilm formation [1]: slightly effect
- shift in composition (Streptococcus down, Veillonella and Actinobacillus up) versus control ([2]; 48 h): absent or even inversed
- Actinobacillus, share of biofilm composition ([2]; 48 h): 3.7%
- Actinomyces, share of biofilm composition ([2]; 48 h): 0.0%
- Campylobacter, share of biofilm composition ([2]; 48 h): 0.2%
- Fusobacterium, share of biofilm composition ([2]; 48 h): 0.0%
- Granulicatella, share of biofilm composition ([2]; 48 h): 0.1%
- Haemophilus, share of biofilm composition ([2]; 48 h): 0.0%
- Megasphaera, share of biofilm composition ([2]; 48 h): 0.0%
- Neisseria, share of biofilm composition ([2]; 48 h): 0.0%
- Other taxa, share of biofilm composition ([2]; 48 h): 0.1%
- Porphyromonas, share of biofilm composition ([2]; 48 h): 0.0%
- Prevotella, share of biofilm composition ([2]; 48 h): 0.0%
- Rothia, share of biofilm composition ([2]; 48 h): 0.0%
- Solobacterium, share of biofilm composition ([2]; 48 h): 0.1%
- Streptococcus, share of biofilm composition ([2]; 48 h): 60.8%
- Unclass. Pasteurellaceae, share of biofilm composition ([2]; 48 h): 0.2%
- Veillonella, share of biofilm composition ([2]; 48 h): 34.8%
- Actinobacillus, share of biofilm composition ([2]; 96 h): 3.4%
- Actinomyces, share of biofilm composition ([2]; 96 h): 0.1%
- Campylobacter, share of biofilm composition ([2]; 96 h): 1.6%
- Fusobacterium, share of biofilm composition ([2]; 96 h): 0.0%
- Granulicatella, share of biofilm composition ([2]; 96 h): 0.2%
- Haemophilus, share of biofilm composition ([2]; 96 h): 0.0%
- Megasphaera, share of biofilm composition ([2]; 96 h): 0.0%
- Neisseria, share of biofilm composition ([2]; 96 h): 0.0%
- Other taxa, share of biofilm composition ([2]; 96 h): 0.7%
- Porphyromonas, share of biofilm composition ([2]; 96 h): 0.0%
- Prevotella, share of biofilm composition ([2]; 96 h): 2.3%
- Rothia, share of biofilm composition ([2]; 96 h): 0.0%
- Solobacterium, share of biofilm composition ([2]; 96 h): 0.7%
- Streptococcus, share of biofilm composition ([2]; 96 h): 38.0%
- Unclass. Pasteurellaceae, share of biofilm composition ([2]; 96 h): 0.0%
- Veillonella, share of biofilm composition ([2]; 96 h): 52.9%
- reduction of lactate production [3]: not observed
- lactic acid production after 96 h of growth [3]: up-regulate

Structure (SMILES): O=C1C=C(Br)/C(=C/Br)O1 [Furanone C30, (Z-)-4-Bromo-5-(bromomethylene)-2(5H)-furanone]
- effect on in vitro oral plaque biofilm formation [1]: slightly effect
- shift in composition (Streptococcus down, Veillonella and Actinobacillus up) versus control ([2]; 48 h): absent or even inversed
- Actinobacillus, share of biofilm composition ([2]; 48 h): 4.9%
- Actinomyces, share of biofilm composition ([2]; 48 h): 0.1%
- Campylobacter, share of biofilm composition ([2]; 48 h): 0.0%
- Fusobacterium, share of biofilm composition ([2]; 48 h): 0.0%
- Granulicatella, share of biofilm composition ([2]; 48 h): 0.0%
- Haemophilus, share of biofilm composition ([2]; 48 h): 0.0%
- Megasphaera, share of biofilm composition ([2]; 48 h): 0.0%
- Neisseria, share of biofilm composition ([2]; 48 h): 0.0%
- Other taxa, share of biofilm composition ([2]; 48 h): 0.0%
- Porphyromonas, share of biofilm composition ([2]; 48 h): 0.0%
- Prevotella, share of biofilm composition ([2]; 48 h): 0.0%
- Rothia, share of biofilm composition ([2]; 48 h): 0.0%
- Solobacterium, share of biofilm composition ([2]; 48 h): 0.1%
- Streptococcus, share of biofilm composition ([2]; 48 h): 66.2%
- Unclass. Pasteurellaceae, share of biofilm composition ([2]; 48 h): 0.0%
- Veillonella, share of biofilm composition ([2]; 48 h): 28.6%
- Actinobacillus, share of biofilm composition ([2]; 96 h): 4.5%
- Actinomyces, share of biofilm composition ([2]; 96 h): 0.3%
- Campylobacter, share of biofilm composition ([2]; 96 h): 0.0%
- Fusobacterium, share of biofilm composition ([2]; 96 h): 0.0%
- Granulicatella, share of biofilm composition ([2]; 96 h): 0.3%
- Haemophilus, share of biofilm composition ([2]; 96 h): 0.0%
- Megasphaera, share of biofilm composition ([2]; 96 h): 0.0%
- Neisseria, share of biofilm composition ([2]; 96 h): 0.0%
- Other taxa, share of biofilm composition ([2]; 96 h): 0.1%
- Porphyromonas, share of biofilm composition ([2]; 96 h): 0.0%
- Prevotella, share of biofilm composition ([2]; 96 h): 0.0%
- Rothia, share of biofilm composition ([2]; 96 h): 0.0%
- Solobacterium, share of biofilm composition ([2]; 96 h): 0.8%
- Streptococcus, share of biofilm composition ([2]; 96 h): 34.4%
- Unclass. Pasteurellaceae, share of biofilm composition ([2]; 96 h): 0.0%
- Veillonella, share of biofilm composition ([2]; 96 h): 59.6%
- reduction of lactate production [3]: not observed
- lactic acid production after 96 h of growth [3]: up-regulate

Structure (SMILES): CCCCCCCCCCCC(=O)N[C@H]1CCOC1=O [C12-HSL, N-[(3S)-tetrahydro-2-oxo-3-furanyl]-dodecanamide]
- total lactic acid production per biofilm (FIG. 2) [3]: no effect

Structure (SMILES): CCCCCCCCCCCCCC(=O)N[C@H]1CCOC1=O [HSL-C14]
- biofilm production (visible amount of biofilm) ([1]; Example 2, 100 μM, 48 h): toxic to the formation of biofilm
- total lactic acid production per biofilm (FIG. 2) [3]: reduced lactic acid production
